Results taken from patent EP0743938B1, “SUBSTITUTED SPIRO COMPOUNDS FOR THE TREATMENT OF INFLAMMATION” (G.D. SEARLE & CO., priority 1994, dated 1995).

Tests used:
Male Sprague-Dawley rats [1] = experiment: Rat Carrageenan-induced Analgesia Test; assay type: in vivo; conditions: po, 3 h, read-out: ANALGESIA % Inhibition @ 10mg/kg body weight, rats dosed orally, hyperalgesic foot withdrawal, thermal stimulation three hours after carrageenan
Male Sprague-Dawley rats [2] = experiment: Rat Carrageenan Foot Pad Edema Test; assay type: in vivo; conditions: po, 3 h, rats dosed orally, 10mg/kg body weight, one hour before carrageenan, foot volume three hours after carrageenan, read-out: RAT PAW EDEMA % Inhibition @ 10mg/kg body weight
Method: Male Sprague-Dawley rats were selected in each group so that the average body weight was as close as possible. Rats were fasted with free access to water for over sixteen hours prior to the test. The rats were dosed orally (1 mL) with compounds suspended in vehicle containing 0.5% methylcellulose and .025% surfactant, or with vehicle alone. One hour later a subplantar injection of 0.1 mL of 1% solution of carrageenan/sterile 0.9% saline was administered and the volume of the injected foot was measured with a displacement plethysmometer connected to a pressure transducer with a digital indicator. Three hours after the injection of the carrageenan, the volume of the foot was again measured.

COX-1 = COX-1 (Homo sapiens, UniProt P23219); conditions: read-out: COX I ID50 µM
Chain of COX-1 (P23219 24-599): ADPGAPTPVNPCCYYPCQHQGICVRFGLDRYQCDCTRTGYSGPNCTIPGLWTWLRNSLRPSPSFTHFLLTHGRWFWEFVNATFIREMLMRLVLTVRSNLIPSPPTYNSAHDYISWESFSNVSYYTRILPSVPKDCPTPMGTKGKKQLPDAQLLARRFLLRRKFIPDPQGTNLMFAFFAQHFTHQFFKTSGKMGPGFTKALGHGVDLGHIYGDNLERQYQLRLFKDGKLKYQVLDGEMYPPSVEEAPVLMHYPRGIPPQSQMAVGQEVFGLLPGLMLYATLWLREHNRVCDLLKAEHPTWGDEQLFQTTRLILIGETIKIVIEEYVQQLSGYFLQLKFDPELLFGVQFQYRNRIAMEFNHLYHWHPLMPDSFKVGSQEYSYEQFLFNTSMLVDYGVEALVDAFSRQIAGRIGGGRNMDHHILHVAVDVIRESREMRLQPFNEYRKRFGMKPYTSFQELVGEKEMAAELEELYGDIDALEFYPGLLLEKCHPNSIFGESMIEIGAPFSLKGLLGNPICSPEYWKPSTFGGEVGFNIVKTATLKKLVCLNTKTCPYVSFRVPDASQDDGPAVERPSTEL

Row | SMILES | inhibition in vivo at 10 mg/kg (Male Sprague-Dawley rats [1]) | inhibition in vivo at 10 mg/kg (Male Sprague-Dawley rats [2]) | IC50 (COX-1)
1 | NS(=O)(=O)c1ccc(C2=C(c3ccc(Cl)c(Cl)c3)CC3(CC3)C2)cc1 [Example 29, 4-[6-(3,4-Dichlorophenyl)spiro[2.4]hept-5-en-5-yl]benzenesulfonamide] | 29% | 24% | 
2 | CS(=O)(=O)c1ccc(C2=C(c3ccc(F)cc3)CC3(CC3)C2)cc1 [Example 1, 5-(4-Fluorophenyl)-6-[4-(methylsulfonyl)phenyl]spiro[2.4]hept-5-ene] | 15% | 32% | 
3 | CS(=O)(=O)c1ccc(C2=C(c3ccc(Cl)c(Cl)c3)CC3(CC3)C2)cc1 [Example 27, 5-(3,4-Dichlorophenyl)-6-[4-(methylsulfonyl)phenyl]spiro[2.4]hept-5-ene] |  | 15% | 
4 | COc1ccc(C2=C(c3ccc(S(N)(=O)=O)cc3)CC3(CC3)C2)cc1F [Example 9, 4-[6-(3-Fluoro-4-methoxyphenyl)spiro[2.4]hept-5-en-5-yl]benzenesulfonamide] | 17% | 15% | 
5 | CS(=O)(=O)c1ccc(C2=C(c3ccc(F)cc3)CC3(CCC3)C2)cc1 [Example 3, 6-(4-Fluorophenyl)-7-[4-(methylsulfonyl)phenyl]spiro[3.4]oct-6-ene] |  | 24% | 
6 | COc1ccc(C2=C(c3ccc(S(C)(=O)=O)cc3)CC3(CC3)C2)cc1F [Example 8, 5-(3-Fluoro-4-methoxyphenyl)-6-[4-(methylsulfonyl)phenyl]spiro[2.4]hept-5-ene] | 8% | 15% | 
7 | CS(=O)(=O)c1ccc(C2=C(c3ccc(OC(F)(F)F)cc3)CC3(CC3)C2)cc1 [Example 14, 6-[4-(Methylsulfonyl)phenyl]-5-(4-trifluoromethoxyphenyl)spiro[2.4]hept-5-ene] |  | 18% | 
8 | COc1c(Cl)cc(C2=C(c3ccc(S(C)(=O)=O)cc3)CC3(CC3)C2)cc1Cl [Example 20, 5-(3,5-Dichloro-4-methoxyphenyl)-6-[4-(methylsulfonyl)phenyl]spiro[2.4]hept-5-ene] | 28% | 24% | 
9 | CS(=O)(=O)c1ccc(C2=C(c3ccc(C(F)(F)F)cc3)CC3(CC3)C2)cc1 [Example 19, 6-[4-(Methylsulfonyl)phenyl)-5-(4-trifluoromethylphenyl)spiro[2.4]hept-5-ene] | 9% | 11% | 
10 | COc1ccc(C2=C(c3ccc(S(N)(=O)=O)cc3)CC3(CC3)C2)cc1Cl [Example 7, 4-[6-(3-Chloro-4-methoxyphenyl)spiro[2.4]hept-5-en-5-yl]benzenesulfonamide] | 18% | 20% | 
11 | NS(=O)(=O)c1ccc(C2=C(c3ccc(F)cc3)CC3(CC3)C2)cc1 [Example 2, 4-[6-(4-Fluorophenyl)spiro[2.4]hept-5-en-5-yl]benzenesulfonamide] | 34% | 57% | 
12 | CS(=O)(=O)c1ccc(C2=C(c3ccc(F)c(Cl)c3)CC3(CC3)C2)cc1 [Example 22, 5-(3-Chloro-4-fluorophenyl)-6-[4-(methylsulfonyl)phenyl]spiro[2.4]hept-5-ene] | 10% | 21% | 6 µM
13 | NS(=O)(=O)c1ccc(C2=C(c3ccc(C(F)(F)F)cc3)CC3(CC3)C2)cc1 [Example 25, 4-[6-(4-Trifluoromethylphenyl)spiro[2.4]hept-5-en-5-yl]benzenesulfonamide] | 22% | 34% | 
14 | COc1ccc(C2=C(c3ccc(S(C)(=O)=O)cc3)CC3(CC3)C2)cc1Br [Example 16, 5-(3-Bromo-4-methoxyphenyl)-6-[4-(methylsulfonyl)phenyl]spiro[2.4]hept-5-ene] |  | 6% | 
15 | COc1ccc(C2=C(c3ccc(S(C)(=O)=O)cc3)CC3(CC3)C2)cc1Cl [Example 6, 5-(3-Chloro-4-methoxyphenyl)-6-[4-(methylsulfonyl)phenyl)spiro[2.4]hept-5-ene] | 7% | 21% | 
16 | NS(=O)(=O)c1ccc(C2=C(c3ccc(F)cc3)CC3(CCC3)C2)cc1 [Example 4, 4-[7-(4-Fluorophenyl)spiro[3.4]oct-6-en-6-yl]benzenesulfonamide] |  | 17% | 
